Assay results reported in PubChem BioAssay (NCI).
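A five-concentration, 48-hour dose response in 96-well plates underlies each endpoint, interpolated linearly between surrounding concentrations. TGI: concentration producing complete growth inhibition.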

What was measured:
Assay in all cases: NCI anticancer screen, dose series, 48 h
OVCAR-8 ovarian = test system: OVCAR-8 ovarian
MALME-3M melanoma = test system: MALME-3M melanoma
KM12 colon = test system: KM12 colon
RXF 393 renal = test system: RXF 393 renal
SK-MEL-2 melanoma = test system: SK-MEL-2 melanoma
HCC-2998 colon = test system: HCC-2998 colon
786-0 renal = test system: 786-0 renal
SNB-75 CNS = test system: SNB-75 CNS
UACC-257 melanoma = test system: UACC-257 melanoma
MDA-MB-435 = test system: MDA-MB-435
NCI-H460 lung = test system: NCI-H460 lung
EKVX NSCLC = test system: EKVX NSCLC
HS 578T breast = test system: HS 578T breast
DU-145 prostate = test system: DU-145 prostate
ACHN renal = test system: ACHN renal
SF-268 CNS = test system: SF-268 CNS
MOLT-4 leukemia = test system: MOLT-4 leukemia
HL-60(TB) leukemia = test system: HL-60(TB) leukemia
TK-10 renal = test system: TK-10 renal
MCF7 breast = test system: MCF7 breast
NCI-H23 lung = test system: NCI-H23 lung
NCI-H522 lung = test system: NCI-H522 lung
IGROV1 ovarian = test system: IGROV1 ovarian
SF-539 CNS = test system: SF-539 CNS
LOX IMVI melanoma = test system: LOX IMVI melanoma
PC-3 prostate = test system: PC-3 prostate
SK-MEL-5 melanoma = test system: SK-MEL-5 melanoma
NCI/ADR-RES ovarian = test system: NCI/ADR-RES ovarian
SN12C renal = test system: SN12C renal
CCRF-CEM leukemia = test system: CCRF-CEM leukemia
T-47D breast = test system: T-47D breast
CAKI-1 renal = test system: CAKI-1 renal
BT-549 breast = test system: BT-549 breast
HOP-92 NSCLC = test system: HOP-92 NSCLC
A549 NSCLC = test system: A549 NSCLC
SW-620 colon = test system: SW-620 colon
HT29 colon = test system: HT29 colon
K-562 leukemia = test system: K-562 leukemia
U251 CNS = test system: U251 CNS
UACC-62 melanoma = test system: UACC-62 melanoma
A498 renal = test system: A498 renal
OVCAR-3 ovarian = test system: OVCAR-3 ovarian
HOP-62 NSCLC = test system: HOP-62 NSCLC
SK-OV-3 ovarian = test system: SK-OV-3 ovarian
HCT-116 colon = test system: HCT-116 colon
COLO 205 colon = test system: COLO 205 colon
OVCAR-5 ovarian = test system: OVCAR-5 ovarian
M14 melanoma = test system: M14 melanoma
HCT-15 colon = test system: HCT-15 colon
SF-295 CNS = test system: SF-295 CNS
MDA-N = test system: MDA-N
SNB-19 CNS = test system: SNB-19 CNS
OVCAR-4 ovarian = test system: OVCAR-4 ovarian
UO-31 renal = test system: UO-31 renal
SR leukemia = test system: SR leukemia

Q: How did the TGI (OVCAR-8 ovarian) turn out when `CC[C@@]1(C[C@H]2C[C@@]3(C(=O)OC)c4[nH]c5ccccc5c4CCN3C2=S)COC2(CCCCC2)O1` was run?
A: > 100 µM

Q: What about the TGI (MALME-3M melanoma) of the same molecule?
A: > 100 µM

Q: What about the TGI (KM12 colon) of the same molecule?
A: 67.8 µM

Q: And the TGI (RXF 393 renal)?
A: > 100 µM

Q: What about the TGI (SK-MEL-2 melanoma) of the same molecule?
A: > 100 µM

Q: And the TGI (HCC-2998 colon)?
A: > 100 µM

Q: And the TGI (786-0 renal)?
A: > 100 µM

Q: And the TGI (SNB-75 CNS)?
A: > 100 µM

Q: What about the TGI (UACC-257 melanoma) of the same molecule?
A: > 100 µM

Q: What about the TGI (MDA-MB-435) of the same molecule?
A: > 100 µM

Q: What about the TGI (NCI-H460 lung) of the same molecule?
A: > 100 µM

Q: And the TGI (EKVX NSCLC)?
A: > 100 µM

Q: What about the TGI (HS 578T breast) of the same molecule?
A: > 100 µM

Q: And the TGI (DU-145 prostate)?
A: > 100 µM

Q: What about the TGI (ACHN renal) of the same molecule?
A: > 100 µM

Q: And the TGI (SF-268 CNS)?
A: > 100 µM

Q: And the TGI (MOLT-4 leukemia)?
A: > 100 µM

Q: And the TGI (HL-60(TB) leukemia)?
A: > 100 µM

Q: What about the TGI (TK-10 renal) of the same molecule?
A: 87.7 µM

Q: What about the TGI (MCF7 breast) of the same molecule?
A: > 100 µM

Q: And the TGI (NCI-H23 lung)?
A: > 100 µM

Q: What about the TGI (NCI-H522 lung) of the same molecule?
A: > 100 µM

Q: What about the TGI (IGROV1 ovarian) of the same molecule?
A: > 100 µM

Q: What about the TGI (SF-539 CNS) of the same molecule?
A: > 100 µM

Q: What about the TGI (LOX IMVI melanoma) of the same molecule?
A: > 100 µM

Q: What about the TGI (PC-3 prostate) of the same molecule?
A: > 100 µM

Q: What about the TGI (SK-MEL-5 melanoma) of the same molecule?
A: 39 µM

Q: And the TGI (NCI/ADR-RES ovarian)?
A: > 100 µM

Q: And the TGI (SN12C renal)?
A: > 100 µM

Q: What about the TGI (CCRF-CEM leukemia) of the same molecule?
A: > 100 µM

Q: What about the TGI (T-47D breast) of the same molecule?
A: > 100 µM

Q: And the TGI (CAKI-1 renal)?
A: > 100 µM

Q: And the TGI (BT-549 breast)?
A: 41.6 µM

Q: And the TGI (HOP-92 NSCLC)?
A: > 100 µM

Q: And the TGI (A549 NSCLC)?
A: > 100 µM

Q: And the TGI (SW-620 colon)?
A: 36.2 µM

Q: And the TGI (HT29 colon)?
A: > 100 µM

Q: And the TGI (K-562 leukemia)?
A: > 100 µM

Q: What about the TGI (U251 CNS) of the same molecule?
A: > 100 µM

Q: And the TGI (UACC-62 melanoma)?
A: > 100 µM

Q: What about the TGI (A498 renal) of the same molecule?
A: > 100 µM

Q: What about the TGI (OVCAR-3 ovarian) of the same molecule?
A: > 100 µM

Q: And the TGI (HOP-62 NSCLC)?
A: > 100 µM

Q: And the TGI (SK-OV-3 ovarian)?
A: > 100 µM

Q: What about the TGI (HCT-116 colon) of the same molecule?
A: > 100 µM

Q: What about the TGI (COLO 205 colon) of the same molecule?
A: > 100 µM

Q: What about the TGI (OVCAR-5 ovarian) of the same molecule?
A: > 100 µM

Q: And the TGI (M14 melanoma)?
A: > 100 µM

Q: And the TGI (HCT-15 colon)?
A: > 100 µM

Q: And the TGI (SF-295 CNS)?
A: > 100 µM

Q: And the TGI (MDA-N)?
A: > 100 µM

Q: What about the TGI (SNB-19 CNS) of the same molecule?
A: > 100 µM

Q: And the TGI (OVCAR-4 ovarian)?
A: > 100 µM

Q: And the TGI (UO-31 renal)?
A: > 100 µM

Q: And the TGI (SR leukemia)?
A: > 100 µM
